Reference: PubChem BioAssay (NCI)
“And” between values parts separate entries of the source, which are not always exact repeats. Identical values can stand only once.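 Dose response: 5 concentrations. Exposure: 48 h. Format: 96-well plates. Endpoint: linear interpolation; highest concentration if not reached. Here, GI50 denotes the concentration required for 50% inhibition of growth. At the TGI there is no net growth.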 The source made the active and inactive calls. Rule as the data show it: active = GI50 below about 0.43 µM; inactive = the rest.

Columns and labels:
Assay in all cases: NCI tumour cell line growth inhibition, 48 h
[1] = test system: MDA-N
[2] = test system: M19-MEL melanoma
[3] = test system: KM20L2 colon
[4] = test system: XF 498 CNS
[5] = test system: SNB-78 CNS
[6] = test system: DMS 114 small cell lung
[7] = test system: LXFL 529 NSCLC
[8] = test system: DLD-1 colon

SMILES | TGI [1] | TGI [2] | TGI [3] | TGI [4] | TGI [5] [µM] | TGI [6] | TGI [7] | TGI [8] | other results
CCOc1ccc2nc(NC(=O)C(=O)C(c3cnc4ccccc4n3)[N+](=O)[O-])sc2c1 (stereo not given) | > 100 µM | – | – | – | – | – | – | – | –
Cc1cccc(NC(=O)c2cccc([N+](=O)[O-])c2O)c1C | – | 79.1 µM | 83.2 µM | 61 µM | > 100 | > 100 µM | > 100 µM | > 100 µM | –
COc1ccccc1NC(=O)CC(=O)N/N=C/c1ccc(N(CCC#N)S(=O)(=O)c2ccccc2)cc1 | – | > 100 µM | > 100 µM | > 100 µM | > 100 | > 100 µM | > 100 µM | > 100 µM | –
O=C(NC12CC3CC(CC(C3)C1)C2)C(=O)c1c[nH]c2ccccc12 | – | 36.2 µM | 19.7 µM | 25.7 µM | 40.3 | 36 µM | 26.5 µM | – | –
COc1cccc(NC(=O)/C(Cc2nc3ccccc3nc2C)=N/NC(=O)C[n+]2ccccc2)c1 | – | > 100 µM | > 100 µM | > 100 µM | > 100 | > 100 µM | > 100 µM | > 100 µM | –
COc1ccc(OCC(=O)O)c(C(=O)CCC(=O)O)c1 | – | > 100 µM | – | > 100 µM | > 100 | > 100 µM | > 100 µM | > 100 µM | –
COC(C)(C)C/C=C/C(C)=C/C=C/C(C)=C\C=C\C(C)=C\C=C\C=C(C)\C=C\C=C(C)\C=C\C=C(C)\C=C\CC(C)(C)OC | – | > 150 mg/L | – | – | – | > 150 mg/L | – | > 150 mg/L | GI50 [2]: > 150 mg/L; outcome [3]: inactive; outcome [4]: inactive; GI50 [6]: > 150 mg/L; outcome [7]: inactive; GI50 [8]: > 150 mg/L
O=c1c2cc(Cl)ccc2sc2cccc(Cl)c12 | – | > 100 µM | > 100 µM | – | > 100 | – | > 100 µM | – | –
CCN(CC)c1ccc(N=Nc2ccc(-c3nc4ccc[n+](C)c4o3)cc2)cc1 | – | 16.3 µM | 25.9 µM | 23.5 µM | 32.6 | 15.8 µM | 16.7 µM | 20.1 µM | –
CSc1nc(SC)c2c(CO)c(Br)n(Cc3ccccc3)c2n1 | > 100 µM | – | – | – | – | – | – | – | –
N#CC1CCCCCCCCCCC(=O)N(CCCl)C1=O (stereo not given) | – | > 100 µM | > 100 µM | > 100 µM | > 100 | > 100 µM | > 100 µM | > 100 µM | –
Cc1cc(C)cc(NC(N)=S)c1 | – | > 100 µM | > 100 µM | > 100 µM | > 100 | > 100 µM | > 100 µM | > 100 µM | –
CC(=O)C1=C(O)CC2CC3c4[nH]c5ccccc5c4CCN3CC2C1 (stereo not given) | – | – | > 100 µM | > 100 µM | > 100 | > 100 µM | > 100 µM | > 100 µM | –
COC(=O)Nc1nc2ccc(Br)cc2[nH]1 | – | > 100 µM | 64.1 µM | 86.5 µM | > 100 | > 100 µM | > 100 µM | > 100 µM | –
CN(C)CC/[N+]([O-])=C(/c1ccccc1)C12CC3CC(CC(C3)C1)C2 | – | 27.2 µM | 24.5 µM | 25.9 µM | 41.8 | 36 µM | 39.1 µM | 32 µM | –
O=C(c1ccccc1)c1cn(/N=C\c2ccccc2)c(=O)nc1-c1ccccc1 | – | > 100 µM | > 100 µM | – | > 100 | > 100 µM | > 100 µM | > 100 µM | –
CN1C(=O)C2C(C1=O)C1(O)c3ccccc3C2(N)c2ccccc21 (stereo not given) | – | > 100 µM | – | – | > 100 | > 100 µM | – | > 100 µM | –
O=c1c(O)c(-c2cc(O)c(O)c(O)c2)oc2cc(O)cc(O)c12 | 24.5 µM | – | – | – | – | – | – | – | –
COc1cc2c(cc1OC)C13CCN4CC5CCOC6CC(=O)N2C1C6C5CC43 (stereo not given) | > 100 µM | – | – | – | – | – | – | – | –
Cc1cc(Cl)ccc1NC(=O)CC1SC(=Nc2ccccc2Cl)NC1=O (stereo not given) | – | > 100 µM | 88.2 µM | > 100 µM | > 100 | 67.5 µM | > 100 µM | > 100 µM | –
O=C(O)CCc1nn2c(nc1=O)sc1ccc3ccccc3c12 | – | > 100 µM | > 100 µM | > 100 µM | > 100 | > 100 µM | > 100 µM | > 100 µM | –
Cn1cc2ccccc2c1-c1nc(F)nc(OCC(=O)[C@H]2CCC3[C@@H]4CCC5=CC(=O)CC[C@]5(C)C4[C@@H](O)C[C@@]32C)n1 (stereo not given in full) | – | 14.9 µM | > 57 µM | 21.9 µM | 47.3 | 22.5 µM | 9.59 µM | 22.5 µM | –
O=Cc1c(O)c(C(=O)Nc2ccc3[nH]c(=O)[nH]c3c2)cc2ccccc12 | – | > 100 µM | > 100 µM | – | > 100 | > 100 µM | > 100 µM | > 100 µM | –
Cc1cccc(C)c1NC(=O)C(=O)Nn1c(NN)nc2ccccc2c1=O | – | > 100 µM | > 100 µM | – | > 100 | > 100 µM | > 100 µM | – | –

SMILES | TGI [1] | TGI [2] | TGI [3] | TGI [4] | TGI [5] [µM] | TGI [6] | TGI [7] | TGI [8] | other results
NC(N)=NS(=O)(=O)c1ccc(Nc2c3ccccc3nc3c(C(=O)Nc4ccc(S(N)(=O)=O)cc4)cccc23)cc1 | – | > 100 µM | > 100 µM | 69.8 µM | > 100 | > 100 µM | 78.5 µM | > 100 µM | –
Cc1cc2c(C)nn(Cc3ccc(Cl)cc3)c2c(C#N)c1C | – | > 100 µM | > 100 µM | > 100 µM | > 100 | – | > 100 µM | – | –
C=C(c1ccccc1)[C@@]1(O)CC[C@@H]1N(CC#N)Cc1ccccc1 | 40 µM | 57.1 µM | > 100 µM | – | > 85.2 | 34.3 µM | 29.5 µM | 36.4 µM | –
CCCCCCCc1cc2c3c(nc4ccccc42)C(=O)c2cccnc2-c3n1 | 9.12 µM | – | – | – | – | – | – | – | GI50 [1]: 4.44 µM
N#CC1CC2(CCN1C(=O)c1ccccc1)OCCO2 (stereo not given) | – | > 100 µM | > 100 µM | > 100 µM | > 100 | > 100 µM | > 100 µM | > 100 µM | –
Clc1ccc(C(n2cc(Br)cn2)n2cc(Br)cn2)cc1 | – | 32.6 µM | – | – | 44.4 | – | 29.5 µM | – | –
CN(Cc1cc(C(C)(C)C)cc(Br)c1O)Cc1cc(C(C)(C)C)cc(Br)c1O | 15.9 µM | – | – | – | – | – | – | – | –
CN(C)CCNC(=O)c1ccc(NC(=O)c2nc([N+](=O)[O-])cn2C)cc1 | > 100 µM | – | – | – | – | – | – | – | –
CC(C)CC(NC(=O)OC(C)(C)C)C(=O)Nc1ccc(Nc2nc(F)nc(-c3c4ccccc4cn3C)n2)cc1 (stereo not given) | > 100 µM | > 100 µM | > 100 µM | > 100 µM | > 68 | > 72.4 µM | > 100 µM | > 58 µM | –
CC(C)OP(=O)(NC(=S)c1ccccc1)OC(C)C | – | > 100 µM | > 100 µM | > 100 µM | > 100 | > 100 µM | > 100 µM | > 100 µM | –
COc1cc2c(cc1OC)/C(=C\c1ccccc1N)C(=O)OC2 | – | 39.2 µM | 43.4 µM | – | – | 34.7 µM | 17.7 µM | 29.3 µM | –
Cn1cc(C(=O)C[n+]2ccccc2)c2ccccc21 | – | > 100 µM | > 100 µM | > 100 µM | – | > 100 µM | – | > 100 µM | –
CN(C)c1ccc(/C=c2\sc3nc4ccccc4n3c2=O)cc1 | – | > 100 µM | > 100 µM | > 100 µM | > 100 | > 100 µM | > 100 µM | > 100 µM | –
O=C1C(=Cc2c(O)cc(O)cc2O)C(=O)c2ccccc21 | – | > 53 µM | > 57.6 µM | – | 62.1 | > 100 µM | > 57.5 µM | > 55.2 µM | –
S=P(N1CC1)(N1CC1)N1CC1 | 426 µM and 671 µM | 63 µM and 438 µM | 62 µM and 464 µM | 35.8 µM and 230 µM | 960 | 36.1 µM and 249 µM | 40 µM and 314 µM | 77.2 µM and 682 µM | GI50 [2]: 25.7 µM; GI50 [3]: 30 µM; GI50 [4]: 13.2 µM; GI50 [1]: 257 µM; GI50 [5]: 46.1 µM; GI50 [6]: 5.78 µM; GI50 [7]: 21.9 µM; GI50 [8]: 33.2 µM
O=c1cccccc1[O-].O=c1cccccc1[O-].O=c1cccccc1[O-].[La+3] | – | – | > 100 µM | – | 86.9 | – | – | > 100 µM | GI50 [3]: 17 µM; GI50 [5]: 10.5 µM; GI50 [8]: 22.7 µM
CC1OC(n2cc(F)c(=O)[nH]c2=O)C=CC1=O (stereo not given) | – | 36.2 µM | 34.6 µM | – | 37.1 | 32.3 µM | 31.2 µM | 36 µM | –
COc1cccc(/C=N/C(/N=C/c2cccc(OC)c2O)c2cccc(OC)c2O)c1O | > 100 µM | – | – | – | – | – | – | – | –
NCCCNCCCCNC(=O)C(O)NC(=O)CCCCCCN=C(N)N (stereo not given) | > 5000 µM | 750 µM | 734 µM | 119 µM | > 750 | 581 µM | – | 750 µM | GI50 [1]: > 750 µM
Cc1cc(C)c(-n2c(-c3ccc(Br)cc3)cs/c2=N\N=C2C=C(C(C)(C)C)C(=O)C(C(C)(C)C)=C2)c(C)c1 | > 100 µM | > 100 µM | > 100 µM | > 100 µM | > 100 | > 100 µM | > 100 µM | > 100 µM | –
CC(=O)OCC1OC(n2c(-c3ccc(C)cc3)cc(-c3ccccc3)c(C#N)c2=O)C(OC(C)=O)C(OC(C)=O)C1OC(C)=O (stereo not given) | – | > 100 µM | > 100 µM | > 100 µM | > 100 | > 100 µM | > 100 µM | > 100 µM | –
CC(C)(c1ccccc1)c1ccc(OC#N)cc1 | – | > 100 µM | > 100 µM | > 100 µM | > 100 | > 53.9 µM | > 100 µM | > 62.5 µM | –
COC(=O)/C=C/c1cc2c(cc1-c1c(C(=O)O)cc(OC)c(OC)c1OC)OCO2 | > 10 µM | – | – | – | – | – | – | – | –
O=C1c2ccccc2S(=O)(=O)c2cc(-c3nn[nH]n3)ccc21 | > 100 µM | – | – | – | – | – | – | – | –
